For one test, the target named is T1, Human recombinant MAO-A (Homo sapiens, UniProt P21397).
T1 sequence (P21397 1-527): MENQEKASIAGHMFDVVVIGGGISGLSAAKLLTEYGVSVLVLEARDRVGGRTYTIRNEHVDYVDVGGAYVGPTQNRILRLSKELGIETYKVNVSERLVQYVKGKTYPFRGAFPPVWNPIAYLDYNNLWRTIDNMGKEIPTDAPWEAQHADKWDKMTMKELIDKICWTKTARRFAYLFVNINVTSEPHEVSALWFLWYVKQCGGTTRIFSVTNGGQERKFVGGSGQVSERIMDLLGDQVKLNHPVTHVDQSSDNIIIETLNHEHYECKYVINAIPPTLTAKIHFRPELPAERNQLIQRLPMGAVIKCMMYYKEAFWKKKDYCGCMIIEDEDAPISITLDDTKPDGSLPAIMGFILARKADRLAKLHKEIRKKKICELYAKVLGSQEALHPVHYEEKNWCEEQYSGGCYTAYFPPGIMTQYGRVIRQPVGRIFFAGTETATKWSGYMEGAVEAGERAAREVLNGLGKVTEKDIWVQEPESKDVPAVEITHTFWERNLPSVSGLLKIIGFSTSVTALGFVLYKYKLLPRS
The test can be described thus: MAO-A inhibitory assay. The test is classed as biochemical.

For the next test, the target named is T2, MAO-B (Homo sapiens, UniProt P27338).
T2 sequence (P27338 1-520): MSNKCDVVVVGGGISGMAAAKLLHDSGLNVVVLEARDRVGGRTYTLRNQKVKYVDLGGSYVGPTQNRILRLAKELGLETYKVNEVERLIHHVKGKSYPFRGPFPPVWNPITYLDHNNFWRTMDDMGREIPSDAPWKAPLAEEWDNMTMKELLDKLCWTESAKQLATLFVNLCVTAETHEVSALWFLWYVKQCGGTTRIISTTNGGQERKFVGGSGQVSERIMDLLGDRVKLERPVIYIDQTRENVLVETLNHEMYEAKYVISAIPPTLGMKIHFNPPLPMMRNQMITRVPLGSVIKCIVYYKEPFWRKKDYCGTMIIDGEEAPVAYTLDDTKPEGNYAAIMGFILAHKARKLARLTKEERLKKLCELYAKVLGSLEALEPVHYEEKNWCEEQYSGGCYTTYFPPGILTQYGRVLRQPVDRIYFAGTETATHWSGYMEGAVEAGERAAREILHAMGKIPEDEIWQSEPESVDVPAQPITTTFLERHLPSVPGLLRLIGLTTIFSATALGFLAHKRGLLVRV
The test can be described thus: MAO-B inhibitory assay. The test is classed as biochemical. Conditions: MAO-B IC50, kynuramine 30 μM, potassium phosphate buffer pH 7.4, 37 °C, 20 min.

Where only a bound is given, the exact number is not on record here.

What is called IC50 is the midpoint of a concentration-inhibition curve.

Take `COc1cc(C)cc(C(=O)c2cc(OCc3ccccc3)cc(O)c2Br)c1OCc1ccccc1` [compound 38, (5-(Benzyloxy)-2-bromo-3-hydroxyphenyl) (2-(benzyloxy)-3-methoxy-5-methylphenyl)methanone]: the results for the IC50 on Human recombinant MAO-A and at MAO-B were 20.6 µM and 94.3 µM, respectively.
As to `COCOc1cc(OCc2ccccc2)cc(C(=O)c2cc(C)cc(OC)c2OCc2ccccc2)c1Br` [compound 37, (5-(Benzyloxy)-2-bromo-3-(methoxymethoxy)phenyl) (2-(benzyloxy)-3-methoxy-5-methylphenyl)methanone], the results for the IC50 on Human recombinant MAO-A and at MAO-B were 52.2 µM and 18.6 µM, respectively.
`COCOc1cc(OC)cc(C(=O)c2cc(C)cc(OC)c2OC)c1Br` [compound 33, (2-Bromo-5-methoxy-3-(methoxymethoxy)phenyl)(2,3-dimethoxy-5-methylphenyl)methanone]: the half-inhibitory concentration (IC50) is 27.5 µM at Human recombinant MAO-A and > 100 µM against MAO-B.
For `COCOc1cc(OC)cc2c1C(=O)NC2(O)c1cc(C)cc(OC)c1OC` (stereo not drawn) [compound 35, 3-(2,3-Dimethoxy-5-methylphenyl)-3-hydroxy-5-methoxy-7-(methoxymethoxy)isoindolin-1-one], in that order: > 100 µM and > 100 µM.
For `COc1cc(OCc2ccccc2)cc(C(=O)c2cc(C)cc(OC)c2OCc2ccccc2)c1C#N` [compound 40, (5-(Benzyloxy)-2-cyano-3-methoxyphenyl) (2-(benzyloxy)-3-methoxy-5-methylphenyl)methanone], in that order: > 100 µM and > 100 µM.
For `COCOc1cc(OC)cc(C(=O)c2cc(C)cc(OC)c2OC)c1C#N` [compound 34, 2-(2,3-Dimethoxy-5-methylbenzoyl)-4-methoxy-6-(methoxymethoxy)benzonitrile], in that order: 24.8 µM and > 100 µM.
Consider `COc1cc(OC)c2c(c1)C(O)(c1cc(C)cc(OC)c1OC)OC2=O` (stereo not drawn) [compound 12, 3-(2,3-Dimethoxy-5-methylphenyl)-3-hydroxy-5,7-dimethoxyisobenzofuran-1(3H)-one], for which the values for the IC50 at Human recombinant MAO-A and against MAO-B were > 100 µM and 52.8 µM, respectively.
Turning to `COc1cc(C)cc(C(=O)c2cc(OCc3ccccc3)cc(OCc3ccccc3)c2Br)c1OC` [compound 26, (3,5-Bis(benzyloxy)-2-bromophenyl)(2,3-dimethoxy-5-methylphenyl)methanone], the IC50 at Human recombinant MAO-A and on MAO-B was > 100 µM in each case.
Turning to `COc1cc(C)cc(C(=O)c2cc(O)cc(O)c2Br)c1O` [compound 31, (2-Bromo-3,5-dihydroxyphenyl)(2-hydroxy-3-methoxy-5-methylphenyl)methanone], the IC50 at Human recombinant MAO-A amounted to 14.8 µM; against MAO-B, 43.7 µM.
Taken in the same sequence, the figures for `COCOc1cc(O)cc(C(=O)c2cc(C)cc(OC)c2O)c1Br` [compound 32, (2-Bromo-5-hydroxy-3-(methoxymethoxy)phenyl) (2-hydroxy-3-methoxy-5-methylphenyl)methanone] were 34.1 µM and 53.6 µM.
For the compound `COc1cc(O)c2c(c1)C(O)(c1cc(C)cc(OC)c1OC)NC2=O` (stereo not drawn) [compound 36, 3-(2,3-Dimethoxy-5-methylphenyl)-3,7-dihydroxy-5-methoxyisoindolin-1-one], the IC50 at Human recombinant MAO-A turned out to be 31.9 µM; at MAO-B it was 38.4 µM.
For `COc1cc(C)cc(C(=O)c2cc(OCc3ccccc3)cc(OCc3ccccc3)c2)c1OC` [compound 25, (3,5-Bis(benzyloxy)phenyl)(2,3-dimethoxy-5-methylphenyl)methanone], the IC50 at Human recombinant MAO-A and at MAO-B was > 100 µM in each case.
Take `COc1cc(OC)c(Br)c(C(=O)c2cc(C)cc(OC)c2OC)c1` [compound 16, (2-Bromo-3,5-dimethoxyphenyl)(2,3-dimethoxy-5-methylphenyl)methanone]: the figures for the IC50 at Human recombinant MAO-A and against MAO-B were 62.1 µM and > 100 µM, respectively.
As to `COc1cc(C)cc(C(=O)c2cc(OCc3ccccc3)cc(OCc3ccccc3)c2C#N)c1OC` [compound 27, 2,4-Bis(benzyloxy)-6-(2,3-dimethoxy-5-methylbenzoyl)benzonitrile], the IC50 on Human recombinant MAO-A and at MAO-B was > 100 µM each time.
For `COc1cc(OCc2ccccc2)cc(C(=O)c2cc(C)cc(OC)c2OCc2ccccc2)c1Br` [compound 39, (5-(Benzyloxy)-2-bromo-3-methoxyphenyl) (2-(benzyloxy)-3-methoxy-5-methylphenyl)methanone], the IC50 on Human recombinant MAO-A and on MAO-B was > 100 µM in each case.
Consider `COC(=O)c1c(OC)cc(OC)cc1C(=O)c1cc(C)cc(OC)c1OC` [compound 19, Methyl 2-(2,3-dimethoxy-5-methylbenzoyl)-4,6-dimethoxybenzoate], for which the IC50 on Human recombinant MAO-A and on MAO-B was > 100 µM in each case.
Consider `CCOC(=O)c1c(OC)cc(OC)cc1C(=O)c1cc(C)cc(OC)c1OC` [compound 21, Ethyl 2-(2,3-dimethoxy-5-methylbenzoyl)-4,6-dimethoxybenzoate], for which the figures for the IC50 on Human recombinant MAO-A and at MAO-B were 47 µM and 61.6 µM, respectively.
Regarding `COc1cc(OC)c(C#N)c(C(=O)c2cc(C)cc(OC)c2OC)c1` [compound 17, 2-(2,3-Dimethoxy-5-methylbenzoyl)-4,6-dimethoxybenzonitrile], the IC50 on Human recombinant MAO-A and on MAO-B was > 100 µM each time.

The values are drawn from article PMC9670909 (ACS Omega, 2022).
